According to article PMC9835529, “Investigation of Novel Quinoline–Thiazole Derivatives as Antimicrobial Agents: In Vitro and In Silico Approaches” (ACS Omega, 2022):
≈ marks a conversion by molar mass, not a printed value. Read-outs that look alike come from different tables or passages of the source.

What was measured:
NIH/3T3 cells = test: Cytotoxicity on NIH/3T3 healthy cell line; assay type: cell-based; details: Mus musculus, NIH3T3, 24 h incubation
Protocol: NIH/3T3 cells were incubated in Dulbecco’s modified Eagle’s medium (DMEM) (Sigma-Aldrich, St. Louis, MO), added with fetal calf serum, penicillin (100 IU/mL), streptomycin ([…]), and 7.5% NaHCO3 at 37 °C in a humidified atmosphere of 95% air and 5% CO2. NIH/3T3 cells were seeded into the 96-well plates at a density of 1 × 10^4 cells. After 24 h of incubating period, the culture media were removed, and test compounds were added. After 24 h of incubation period, colorimetric measurements were performed by a microplate reader (Biotek) at 540 nm. Inhibition % at all concentrations was determined using the formula below, and the IC50 values were calculated from a dose–response curve obtained by plotting the percentage inhibition versus the log concentration with the use of Microsoft Excel 2013.

E. coli ATCC 25922 = test: Antibacterial broth microdilution (CLSI M07-A9), MIC90; assay type: cell-based; details: Escherichia coli, ATCC25922
Source text: (§1) The broth microdilution procedure specified in the M07-A9 document of the Clinical and Laboratory Standards Institute (CLSI) was used for antibacterial study,[55] and the EDef 7.1 document published by EUCAST was used for the antifungal study.[56] For both activity studies, the detailed procedures were explained in previous studies.[57],[58]

[1] = tested on: methicillin-resistant S. aureus (MRSA) (clinical isolate); test: as above; assay type: cell-based; details: Staphylococcus aureus
Source text: as §1

[2] = tested on: Escherichia coli ATCC 35218; test: as above; assay type: cell-based; details: Escherichia coli, ATCC35218; E. coli ATCC 35218
Source text: as §1

[3] = tested on: Klebsiella pneumoniae NCTC 9633; test: as above; assay type: cell-based; details: NCTC9633, K. pneumoniae NCTC 9633
Source text: as §1

[4] = tested on: Staphylococcus aureus ATCC 6538; test: as above; assay type: cell-based; details: S. aureus ATCC 6538
Source text: as §1

[5] = tested on: Salmonella typhimurium ATCC 13311; test: as above; assay type: cell-based; details: Salmonella enterica; S. typhimurium ATCC 13311
Source text: as §1

C. glabrata ATCC 90030 = test: Anticandidal broth microdilution (EUCAST EDef 7.1), MIC90; assay type: cell-based, Candida glabrata; details: Nakaseomyces glabratus, ATCC90030, C. glabrata ATCC 90030
Source text: (§2) E. coli (ATCC 35218), E. coli (ATCC 25922), S. aureus (ATCC 6538), methicillin-resistant S. aureus (MRSA) (clinical isolate), S. typhimurium (ATCC 13311), and K. pneumoniae (NCTC 9633) cells for antibacterial effect, and C. albicans (ATCC 24433), C. glabrata (ATCC 90030), C. krusei (ATCC 6258), and C. parapsilosis (ATCC 22019) for the antifungal effect of the final compounds were used to determine the MIC90 values. The broth microdilution procedure specified in the M07-A9 document of the Clinical and Laboratory Standards Institute (CLSI) was used for antibacterial study,[55] and the EDef 7.1 document published by EUCAST was used for the antifungal study.[56] For both activity studies, the detailed procedures were explained in previous studies.[57],[58]

[6] = tested on: Candida albicans ATCC 24433; test: as above; assay type: cell-based
Source text: as §2

Candida krusei ATCC 6258 = test: as above; assay type: cell-based
Source text: as §2

[7] = tested on: Candida parapsilosis ATCC 22019; test: as above; assay type: cell-based
Source text: as §2

[8] = target: T1, Lanosterol 14α-demethylase (LMD, CYP51A1) (Candida glabrata, UniProt P50859); test: LDM (CYP51A1) inhibition by LC-MS-MS quantification of ergosterol level; assay type: cell-based; details: for inhibition at 0.06 µg/mL / inhibition at 0.24 µg/mL / inhibition at 0.98 µg/mL: read-out: CYP51A1 Inhibition%
T1 construct: tested against Candida strains via the determination of ergosterol production; endogenous in cells; host or cells: C. glabrata (ATCC 90030)
T1 sequence (P50859 whole entry): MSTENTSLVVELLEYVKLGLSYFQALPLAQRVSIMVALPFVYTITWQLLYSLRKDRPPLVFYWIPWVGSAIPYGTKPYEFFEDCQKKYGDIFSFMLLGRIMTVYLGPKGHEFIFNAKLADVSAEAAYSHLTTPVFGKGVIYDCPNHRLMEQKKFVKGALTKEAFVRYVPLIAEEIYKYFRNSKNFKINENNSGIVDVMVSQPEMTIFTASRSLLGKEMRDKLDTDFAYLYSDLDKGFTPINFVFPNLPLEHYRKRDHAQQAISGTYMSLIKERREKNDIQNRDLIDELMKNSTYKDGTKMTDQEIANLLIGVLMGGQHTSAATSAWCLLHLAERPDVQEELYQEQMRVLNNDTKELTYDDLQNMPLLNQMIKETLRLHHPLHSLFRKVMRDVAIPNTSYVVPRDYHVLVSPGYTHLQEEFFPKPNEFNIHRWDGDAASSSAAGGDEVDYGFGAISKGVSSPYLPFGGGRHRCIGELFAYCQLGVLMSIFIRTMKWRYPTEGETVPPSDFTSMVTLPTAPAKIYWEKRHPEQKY
Protocol: (§3) The activity of the target compounds was tested against Candida strains via the determination of ergosterol production.
(§4) Ergosterol level was determined using the extract of total sterols from C. albicans (and its other species) following the method described by Breivik and Owades.[63] Quantification of the ergosterol level in this extract was carried out by the recently described method.[58],[64]−[66] According to these described studies, in the current work, compounds 4b, 4e, 4f, and 4h–m were undertaken to investigate their action mechanism. Thus, the LC-MS-MS-based method that quantifies the ergosterol level was applied. […]. Ergosterol quantity in negative control samples was regarded as 100%. All concentrations were analyzed in quadruplicate, and the results were expressed as mean ± standard deviation (SD).

[9] = tested on: Lanosterol 14α-demethylase (LMD, CYP51A1); test: as above; assay type: cell-based
Protocol: as §3, §4

[10] = Staphylococcus aureus, ATCC6538, read-out: MIC90
[11] = Candida albicans, ATCC24433, C. albicans ATCC 24433, read-out: MIC90
[12] = Pichia kudriavzevii, ATCC6258, C. krusei ATCC 6258, read-out: MIC90
[13] = Lodderomyces parapsilosis, ATCC22019, C. parapsilosis ATCC 22019, read-out: MIC90

Structure (SMILES)	melting point	MIC90 (E. coli ATCC 25922)	MIC90 [1]	MIC90 [2]	MIC90 [3]	MIC90 [4, 10]	MIC90 [5]	MIC90 (C. glabrata ATCC 90030)	MIC90 [6, 11]	MIC90 (Candida krusei ATCC 6258; [12])	MIC90 [7, 13]	inhibition at 0.06 µg/mL ([8]; C. glabrata, 0.06 μg/mL)	inhibition at 0.24 µg/mL ([8]; C. glabrata, 0.24 μg/mL)	inhibition at 0.98 µg/mL ([8]; C. glabrata, 0.98 μg/mL)	IC50 (NIH/3T3 cells)	further results
COc1ccc2nc(Cl)c(/C=N/Nc3nc(-c4ccc([N+](=O)[O-])cc4)cs3)cc2c1 [4c]	245 to 253 °C	> 1000 µg/mL	> 1000 µg/mL	> 1000 µg/mL	> 1000 µg/mL	> 1000 µg/mL	> 1000 µg/mL	62.5 µg/mL (≈ 142 µM)	> 1000 µg/mL	31.2 µg/mL (≈ 71 µM)	31.2 µg/mL (≈ 71 µM)	–	–	–	31.6 ± 0.87 µM	–
COc1ccc2nc(Cl)c(C=NNc3nc(-c4cccc(Cl)c4)cs3)cc2c1 [4h]	200 to 202 °C	> 1000 µg/mL	> 1000 µg/mL	> 1000 µg/mL	> 1000 µg/mL	> 1000 µg/mL	> 1000 µg/mL	31.2 µg/mL (≈ 72.8 µM)	> 1000 µg/mL	≤ 0.06 µg/mL	125 µg/mL (≈ 291 µM)	–	–	–	14.5 ± 0.57 µM	effect on ergosterol production / LMD enzyme inhibition (in words) ([9]; C. krusei): showed their anticandidal activity via LMD enzyme inhibition; CYP51A1 Inhibition% ([9]; C. krusei, 0.06 μg/mL): 45.530 ± 0.961%; CYP51A1 Inhibition% ([9]; C. krusei, 0.24 μg/mL): 60.184 ± 1.985%; CYP51A1 Inhibition% ([9]; C. krusei, 0.98 μg/mL): 67.651 ± 1.736%
O=C(N[C@H](CO)[C@H](O)c1ccc([N+](=O)[O-])cc1)C(Cl)Cl [chloramphenicol, reference compound]	–	15.6 µg/mL (≈ 48.4 µM)	31.2 µg/mL (≈ 96.7 µM)	31.2 µg/mL (≈ 96.7 µM)	31.2 µg/mL (≈ 96.7 µM)	≤ 1.95 µg/mL	31.2 µg/mL (≈ 96.7 µM)	–	–	–	–	–	–	–	–	MIC90 ([4]; listed as RF-1): ≤1.95 µg/mL
OC(Cn1cncn1)(Cn1cncn1)c1ccc(F)cc1F [fluconazole, reference compound]	–	–	–	–	–	–	–	–	–	–	–	–	–	–	–	CYP51A1 Inhibition% ([9]; C. krusei, 0.06 μg/mL): 43.378 ± 0.937%; CYP51A1 Inhibition% ([9]; C. krusei, 0.24 μg/mL): 60.132 ± 2.042%; CYP51A1 Inhibition% ([9]; C. krusei, 0.98 μg/mL): 72.523 ± 1.961%; CYP51A1 Inhibition% ([9]; C. parapsilosis, 0.06 μg/mL): 49.579 ± 1.733%; CYP51A1 Inhibition% ([9]; C. parapsilosis, 0.24 μg/mL): 61.533 ± 1.282%; CYP51A1 Inhibition% ([9]; C. parapsilosis, 0.98 μg/mL): 73.204 ± 2.031%; inhibition at 0.06 µg/mL [8]: 46.3 ± 0.936%; inhibition at 0.24 µg/mL [8]: 63.7 ± 2.19%; inhibition at 0.98 µg/mL [8]: 70.1 ± 2.05%
CC(=O)N1CCN(c2ccc(OCC3COC(Cn4ccnc4)(c4ccc(Cl)cc4Cl)O3)cc2)CC1 (stereo not drawn) [ketoconazole, reference compound]	–	–	–	–	–	–	–	0.24 µg/mL (≈ 0.452 µM)	< 0.06 µg/mL	< 0.06 µg/mL	< 0.06 µg/mL	50.4 ± 1.16%	61.9 ± 1.83%	72.8 ± 2.87%	–	CYP51A1 Inhibition% ([9]; C. krusei, 0.06 μg/mL): 52.865 ± 1.662%; CYP51A1 Inhibition% ([9]; C. krusei, 0.24 μg/mL): 60.630 ± 2.875%; CYP51A1 Inhibition% ([9]; C. krusei, 0.98 μg/mL): 75.647 ± 2.749%; CYP51A1 Inhibition% ([9]; C. parapsilosis, 0.06 μg/mL): 55.348 ± 1.091%; CYP51A1 Inhibition% ([9]; C. parapsilosis, 0.24 μg/mL): 63.419 ± 2.074%; CYP51A1 Inhibition% ([9]; C. parapsilosis, 0.98 μg/mL): 71.864 ± 2.229%; MIC90 ([6]; C. albicans ATCC 24433, listed as Rf): ≤0.06 µg/mL; MIC90 (Candida krusei ATCC 6258; C. krusei ATCC 6258, listed as Rf): ≤0.06 µg/mL; MIC90 ([7]; C. parapsilosis ATCC 22019, listed as Rf): ≤0.06 µg/mL

More lines, main results first:

melting point	MIC90 (E. coli ATCC 25922)	MIC90 [1]	MIC90 [2]	MIC90 [3]	MIC90 [4, 10]	MIC90 [5]	MIC90 (C. glabrata ATCC 90030)	MIC90 [6, 11]	MIC90 (Candida krusei ATCC 6258; [12])	MIC90 [7, 13]	inhibition at 0.06 µg/mL ([8]; C. glabrata, 0.06 μg/mL)	inhibition at 0.24 µg/mL ([8]; C. glabrata, 0.24 μg/mL)	inhibition at 0.98 µg/mL ([8]; C. glabrata, 0.98 μg/mL)	Structure (SMILES)	IC50 (NIH/3T3 cells)	further results
193 to 195 °C	> 1000 µg/mL	> 1000 µg/mL	> 1000 µg/mL	> 1000 µg/mL	> 1000 µg/mL	> 1000 µg/mL	1.95 µg/mL (≈ 4.72 µM)	> 1000 µg/mL	31.2 µg/mL (≈ 75.7 µM)	15.6 µg/mL (≈ 37.9 µM)	–	–	–	COc1ccc2nc(Cl)c(/C=N/Nc3nc(-c4ccc(F)cc4)cs3)cc2c1 [4a]	39.8 ± 1.45 µM	–
195 to 197 °C	> 1000 µg/mL	> 1000 µg/mL	> 1000 µg/mL	> 1000 µg/mL	> 1000 µg/mL	> 1000 µg/mL	< 0.06 µg/mL	> 1000 µg/mL	31.2 µg/mL (≈ 72.8 µM)	31.2 µg/mL (≈ 72.8 µM)	36.2 ± 0.965%	51.8 ± 1.61%	60.2 ± 2.1%	COc1ccc2nc(Cl)c(C=NNc3nc(-c4ccc(Cl)cc4)cs3)cc2c1 [4b]	14.7 ± 0.34 µM	effect on ergosterol production / LMD enzyme inhibition (in words) ([8]; C. glabrata): showed their anticandidal activity via LMD enzyme inhibition
220 to 222 °C	> 1000 µg/mL	> 1000 µg/mL	> 1000 µg/mL	> 1000 µg/mL	> 1000 µg/mL	> 1000 µg/mL	1.95 µg/mL (≈ 4.94 µM)	1.95 µg/mL (≈ 4.94 µM)	1.95 µg/mL (≈ 4.94 µM)	15.6 µg/mL (≈ 39.6 µM)	–	–	–	COc1ccc2nc(Cl)c(/C=N/Nc3nc(-c4ccccc4)cs3)cc2c1 [4d]	1.26 ± 0.033 µM	–
240 to 242 °C	> 1000 µg/mL	> 1000 µg/mL	> 1000 µg/mL	> 1000 µg/mL	> 1000 µg/mL	> 1000 µg/mL	< 0.06 µg/mL	3.91 µg/mL (≈ 9.31 µM)	62.5 µg/mL (≈ 149 µM)	3.91 µg/mL (≈ 9.31 µM)	16.7 ± 0.774%	18.3 ± 0.785%	21.7 ± 0.955%	COc1ccc2nc(Cl)c(/C=N/Nc3nc(-c4ccc(C#N)cc4)cs3)cc2c1 [4e]	> 1000 µM	effect on ergosterol production / LMD enzyme inhibition (in words) ([8]; C. glabrata): did not decrease the ergosterol production compared to the standard drugs
194 to 196 °C	> 1000 µg/mL	> 1000 µg/mL	> 1000 µg/mL	> 1000 µg/mL	> 1000 µg/mL	> 1000 µg/mL	< 0.06 µg/mL	> 1000 µg/mL	3.91 µg/mL (≈ 9.56 µM)	3.91 µg/mL (≈ 9.56 µM)	42.1 ± 1.56%	53.8 ± 2.39%	65.1 ± 1.68%	COc1ccc2nc(Cl)c(C=NNc3nc(-c4ccc(C)cc4)cs3)cc2c1 [4f]	> 1000 µM	effect on ergosterol production / LMD enzyme inhibition (in words) ([8]; C. glabrata): showed their anticandidal activity via LMD enzyme inhibition
199 to 202 °C	> 1000 µg/mL	> 1000 µg/mL	> 1000 µg/mL	> 1000 µg/mL	62.5 µg/mL (≈ 140 µM)	> 1000 µg/mL	1.95 µg/mL (≈ 4.38 µM)	3.91 µg/mL (≈ 8.79 µM)	1.95 µg/mL (≈ 4.38 µM)	1.95 µg/mL (≈ 4.38 µM)	–	–	–	COc1ccc2nc(Cl)c(/C=N/Nc3nc(-c4ccc5ccccc5c4)cs3)cc2c1 [4n]	> 1000 µM	–
